Results reported in publication PMC6154605, “Multi-Anti-Parasitic Activity of Arylidene Ketones and Thiazolidene Hydrazines against Trypanosoma cruzi and Leishmania spp” (Molecules : A Journal of Synthetic Chemistry and Natural …, 2017).
Read-outs that look alike come from different tables or passages of the source.

Tests used:
[1] = system: T. cruzi epimastigotes, Tulahuen 2 strain (genotype TcVI); assay: In vitro anti-T. cruzi activity, growth inhibition of epimastigotes; format: cell-based, Trypanosoma cruzi; conditions: for IC50: Trypanosoma cruzi, TULAHUEN; for Trypanocidal activity on T. cruzi in words: molecular stripping, epimastigotes
Protocol: For the in vitro anti-T. cruzi activity, we used epimastigotes of the Tulahuen 2 strain (genotype TcVI) grown in an axenic milieu (BHI-Tryptose). Cells from a 5–7-day-old culture were inoculated in fresh culture milieu to give an initial concentration of 1.00 × 10^6 cells/mL. The absorbance at 600 nm of the cells in culture was measured every day. At Day 5, the milieu was inoculated with different quantities of the compounds from a stock solution in DMSO (DMSO concentration in the culture milieu never exceeded 0.4%). The control was made in the presence of 0.4% DMSO and in the absence of compounds. Each concentration of compound was evaluated in duplicate. At Day 5, the absorbance of the culture was measured and related to the control. […] Each antiproliferative experiment was done in duplicate, and each concentration was tested in triplicate.

[2] = system: L. braziliensis promastigotes; assay: Leishmanicidal activity on promastigotes, resazurin; format: cell-based, Leishmania braziliensis; conditions: 48 h, read-out: IC50 ± SD Promastigotes L. braziliensis
Source text: (§1) We initially selected compounds previously reported to have anti-T. cruzi activity from our chemical library to evaluate their leishmanicidal activity. […]. To evaluate their activity in Leishmania spp., we performed a phenotypic screening using the promastigote form of L. infantum (MHOM/FR/91/LEM-2259) and L. braziliensis ([…]) (Table 1A for the thiazolidenehydrazine derivate and Table 1B for the arylideneketones family).
(§2) A culture of L. braziliensis (MHOM/BR/75/M2904) and L. infantum (MHOM/FR/91/LEM2259V) was obtained from the Facultad de Farmacia (Universidad Complutense, Madrid, Spain). The maintenance of the strains, the form of cultivation and the isolation of the shape of the promastigote were performed following the procedures described by Roldos et al.. The promastigotes were grown at 22 °C in Schneider’s Drosophila medium supplemented with 20% FBS. The assay was performed using a modification of a previous method. Promastigotes (2 × 10^6 parasites/well) were cultivated in 96-well plastic plates. Compounds were dissolved in dimethylsulfoxide (DMSO). Different dilutions of the compounds with a final volume up to 200 µL were added. After 48 h at 26 °C, 20 µL of a 2 mM resazurin solution were added, and the oxidation-reduction was quantified at 570 and 600 nm. The solution of resazurin was prepared at 2.5 mM in phosphate buffered solution (PBS), pH 7.4, and filtered through 0.22-µm membranes prior to use. All tests were carried out in triplicate. Resazurin sodium salt was obtained from Sigma-Aldrich (St. Louis, MO, USA) and stored at 4 °C protected from light. The efficacy of each compound was estimated by calculating the IC50 values. Each antiproliferative experiment was done in duplicate, and each concentration was tested in triplicate.

[3] = system: L. infantum promastigotes; assay: as above; format: cell-based, Leishmania infantum; conditions: 48 h, read-out: IC50 ± SD Promastigotes L. infantum
Source text: as §1, §2

zebrafish embryos = assay: Zebrafish embryo toxicity test (LD50)
Protocol: […] Only embryos that were clearly undamaged after 60 min of observation were kept and subsequently used. Dechorionated embryos were further manipulated using flame-rounded tip glass Pasteur pipettes. […] In all cases, the embryos were incubated in system water with 1% DMSO (negative control) and the compound at different doses between 8 and 96 hpf. The treatment solution was changed daily. […] At selected time points, namely 24, 48, 72 and 96 hpf, embryotoxicity (= mortality) and morphological characteristics of the embryos were evaluated using a Nikon SMZ800 stereomicroscope. The embryos were evaluated for the presence and morphological development (as appropriate) of somites, tail detachment, eyes, heart beat and blood circulation. All individuals were evaluated at all time points.

[4] = Tulahuen 2 strain, read-out: IC50 ± SD Epimastigotes T. cruzi
[5] = Figure 4, molecular stripping of HIT1, read-out: Effect of structural change on trypanocidal activity (emoticon code)

Structure (SMILES)	IC50 [1, 4] [µM]	Trypanocidal activity on T. cruzi in words [1]	IC50 [1, 5] [µM]	other results
C=CCn1c(C(=O)NN2CCN(C/C=C/c3ccccc3)CC2)cs\c1=N/N=C/C=C/c1ccco1 [GAT1613]	20 ± 2	the activity was lost	–	–
C(=C\c1ccco1)/C=N/N1CCN(Cc2ccccc2)CC1 [GAT1912, (E)-4-benzyl-N-((E)-3-(furan-2-yl)allylidene)piperazin-1-amine]	> 25	–	> 25	IC50 ([2]; Leishmania braziliensis): > 100 µM; IC50 ([3]; Leishmania infantum): > 100 µM; melting point: 145 to 147 °C
Nc1nc(-c2ccc(Cl)cc2)cs1 [GAT2012, 4(4-Chlorophenyl)-thiazol-2(3H)-ylidene-2-amine]	> 25	lack of activity	–	–
C=CCn1c(-c2ccc(Br)cc2)cs\c1=N/N=C/C(C)=C/c1ccco1 [GAT2015]	–	–	–	IC50 [2]: > 25 µM; IC50 [3]: > 25 µM
Clc1ccc(-c2csc(/N=C/C=C/c3ccco3)n2)cc1 [GAT2112, (E)-4-(4-Chlorophenyl)-N-((E)-3-(furan-2-yl)allylidene)thiazol-2-amine]	–	the activity was lost	–	–
CC(=O)N1CCN(c2ccc(OCC3COC(Cn4ccnc4)(c4ccc(Cl)cc4Cl)O3)cc2)CC1 (stereo not shown) [Ketoconazole, reference compound]	–	–	–	LD50 without chorion (zebrafish embryos; dechorionated zebrafish embryos, 72 h incubation): 12 ± 3 µM; LD50 with chorion (zebrafish embryos; zebrafish embryos with chorion): > 25 µM

Continued, in another order:

IC50 [1, 4] [µM]	Structure (SMILES)	Trypanocidal activity on T. cruzi in words [1]	IC50 [1, 5] [µM]	other results
10 ± 2	C=CCn1c(-c2ccc(Cl)cc2)cs\c1=N/N=C/C=C/C=C/c1ccco1 [GATA2]	–	–	–
2.7 ± 0.5	C=CCn1c(C(=O)N2CCSCC2)csc1=NN=CC=Cc1ccco1 [GATjm18]	the activity was maintained	–	–
> 25	C=CCn1c(C(=O)CN2CCN(c3ccccc3)CC2)csc1=NN=CC=Cc1ccco1 [GATk1, (2E,2Z)-2-(2-((E)-3-(furan-2-yl)propeniliden)hydrazono)-(3-allyl-2,3-dihydrothiazol-4-yl)-2-(4-phenylpiperazin-1-yl)ethanone]	–	> 25	–
8 ± 1	C=CCn1c(C(=O)CN2CCSCC2)cs/c1=N/N=C\C=C\c1ccco1 [GATk2, 1-((Z)-3-allyl-2-((E)-((E)-3-(furan-2-yl)allylidene)hydrazono)-2,3-dihydrothiazol-4-yl)-2-thiomorpholinoethanone]	–	–	–
> 25	C=CCn1c(C(=O)CNCc2ccccc2)cs/c1=N/N=C\C=C\c1ccco1 [GATk4, 1-((Z)-3-allyl-2-((E)-((E)-3-(furan-2-yl)allylidene)hydrazono)-2,3-dihydrothiazol-4-yl)-2-(benzylamino)ethanone]	–	> 25	–
> 25	C=CCn1c(C(=O)CN2CCN(Cc3ccccc3)CC2)cs/c1=N/N=C\C=C\c1ccco1 [GATk5, 1-((Z)-3-allyl-2-((E)-((E)-3-(furan-2-yl)allylidene)hydrazono)-2,3-dihydrothiazol-4-yl)-2-(4-benzylpiperazin-1-yl)ethanone]	–	> 25	–
> 25	CN1C/C(=C\C=C\c2ccco2)C(=O)/C(=C/C=C/c2ccco2)C1 [Pg150, (3E,5E)-3,5-Bis((E)-3-(furan-2-yl)allylidene)-1-methylpiperidin-4-one]	the activity was completely lost	–	IC50 ([2]; Leishmania braziliensis): > 25 µM; IC50 ([3]; Leishmania infantum): > 25 µM
